According to patent US20210261690A9, “Method of Generating Anti-Linaclotide Antibodies and Uses Thereof” (Ironwood Pharmaceuticals, Inc., priority 2018, published 2021):
Where “and” joins values, the source holds several entries; their conditions need not be identical. Equal entries are not always repeated. Bridge positions count the residues as written; N and C are the ends. Ends that are not written are not given here. Peptide text beside a SMILES is read from it.

Experiments:
[1] = tested on: anti-linaclotide antibodies obtained using protocol 2; test: Cross-reactivity competition assay; assay type: binding, rabbit; settings: 6.3 μg/mL peptide, 500 ng/mL antibody from protocol 2
From the text: The cross-reactivity assay to test for cross-reactivity to the endogenous hormones, uroguanylin and guanylin, is a competition assay similar to the confirmatory assay (Example 7).
To determine if the positive control antibody produced by protocol 2 could bind either of the endogenous hormones, uroguanylin or guanylin peptides were used in place of linaclotide in a competition assay similar to the confirmatory assay described in Example 7. During development, the IC80 concentration for linaclotide, 6.3 μg/mL, was chosen as a relevant test concentration for cross-reactivity because it is on the higher end of the linear range of the inhibition curve (FIG. 18). This concentration (6.3 μg/mL) is approximately 10,000 times the systemic circulating levels of uroguanylin and guanylin. A non-related peptide, C-type natriuretic peptide (CNP), was added as a negative control in this assay.

[2] = tested on: antibody produced by protocol 1; test: Direct-binding ELISA for cross-reactivity with immobilized biotinylated peptides; parameters: species or system rabbit
Experimental: To further characterize the interactions between the positive control antibody and the cross-reacting peptides, a direct-binding ELISA experiment was conducted in which varying concentrations of biotinylated peptides (linaclotide, uroguanylin, and negative control parathyroid hormone [PTH]) were immobilized on the plate for antibody capture. The assay was performed using either sera from protocol 1 or anti-uroguanylin serum (Abcam ab52806) in ELISA buffer; no adequate control antibody to guanylin is available. HRP-anti-rabbit secondary antibody was used for the detection of anti-linaclotide antibodies, and HRP-anti-mouse secondary antibody was used for the detection of anti-uroguanylin antibodies from the antiserum. […] The signal for uroguanylin binding was approximately 15% of the signal obtained for linaclotide under the same conditions.

[3] = tested on: rabbit anti-linaclotide antibody; test: Electrochemiluminescence bridging assay, specificity (cross-reactivity); assay type: binding; settings: individual human serum
Experimental: The electrochemiluminescence assay was used as a validation of a method to detect anti-linaclotide antibodies in human serum using a MSD electrochemiluminescence protocol. Low positive control (LPC), high positive control (HPC), relative light units (RLU), coefficient of variation (CV) and confirmation cut points were determined using MSD procedures. The positive control antibodies used were the antibodies harvested from protocol 2.
The assay is an immunogenicity bridging-based assay developed on MesoScale Discovery Electrochemiluminescence (ECL) technology. It is performed by first mixing a biotinylated-linaclotide analog, a sulfotag-labeled linaclotide analog, and the clinical sample together in a multi-well plate. The presence of anti-linaclotide antibodies in the clinical sample forms an immune complex with a biotin-labeled linaclotide analog and a sulfotag-labeled linaclotide analog. The immune complex is subsequently captured on a streptavidin coated MesoScale Discovery multi-well plate followed by a wash step. The captured immune complex is then detected by electrochemiluminescence generated by the sulfotag-labeled linaclotide portion of the immune complex. The signal generated by the sample is then compared to a pre-determined screening cut point to determine if the sample is positive for the presence of anti-linaclotide antibodies. Samples that are determined to be positive are subjected to a second immunogenicity confirmation assay which is performed by mixing a biotinylated-linaclotide analog, a sulfotag-labeled linaclotide analog, the clinical sample, and unlabeled linaclotide together in a multi-well plate. The immune complex is subsequently captured on a streptavidin-coated MesoScale Discovery multi-well plate followed by a wash step. The captured immune complex is then detected by electrochemiluminescence generated by the sulfotag-labeled linaclotide portion of the immune complex. The signal generated by the sample is then compared to a pre-determined confirmation assay cut point to determine if the sample is positive for the presence of anti-linaclotide antibodies. Samples that are confirmed positive by this assay are subsequently tested at different dilutions to determine the titer of the anti-linaclotide antibody.
Specificity (cross-reactivity) of the assay was assessed by spiking ten drug-naive individual human serum samples containing rabbit anti-linaclotide antibody at the HPC (500 ng/mL) and the screening LPC (44 ng/mL) levels with 10 μg/mL Uroguanylin or Guanylin. At the same time, ten replicates of the antibody-spiked samples (without Uroguanylin or Guanylin) at each level were included to establish the % Inhibition. The following formula was used to calculate the % Inhibition for each individual:
% Inhibition=[(1−(Drug with Antibody/Antibody alone)]*100

[4] = Phase 2b studies for CC, four-week treatment period; cited from earlier work
[5] = tested on: positive control antibody produced by protocol 1; test: Bridging cross-reactivity assay with fluorescein-modified detection peptides; assay type: binding, rabbit; settings: 500 ng/mL antibody, 312 ng/mL SEQ ID NO: 8, 312 and 625 ng/mL fluorescein-modified peptides
From the text: A bridging cross-reactivity assay similar to the screening assay (Example 6) was set up to detect direct binding of the positive control antibody to both linaclotide and uroguanylin or guanylin. For use as detection peptides, uroguanylin and guanylin were synthesized with fluorescein coupled to their N terminus (SEQ ID NO: 10 and SEQ ID NO: 12, respectively; Table 4). This cross-reactivity assay used SEQ ID NO: 8 (Table 4) as the capture peptide, just as in the screening assay, and either SEQ ID NO: 10 (for uroguanylin) or SEQ ID NO: 12 (for guanylin) as the detection peptide. Sheep anti-fluorescein HRP-conjugated antibody was used for detection of positive control antibodies. The antibody must directly bind both the linaclotide-capture peptide and uroguanylin or guanylin to generate a signal in the assay (FIG. 21). A fluorescein-modified PGC1a peptide was purchased for use as a negative control for cross-reactivity.
This cross-reactivity assay was performed using 500 ng/mL of positive control antibody produced by protocol 1, 312 ng/mL of SEQ ID NO: 8, and 2 concentrations (312 and 625 ng/mL) of fluorescein-modified peptides for each set of reactions. […] Positive control antibody is excluded from blank incubations.

[6] = after oral administration at therapeutic dose levels; cited from earlier work
[7] = tested on: antibody obtained from protocol 2; test: Confirmatory assay (ELISA bridging assay with linaclotide competition); assay type: binding, rabbit; settings: 500 ng/mL antibody from protocol 2, 300 ng/mL SEQ ID NO: 8, 312 ng/mL SEQ ID NO: 9
From the text: The initial bridging assay was developed using a biotinylated form of linaclotide, SEQ ID NO: 8, for antibody capture, and the linaclotide-tracer peptide, SEQ ID NO: 9, for detection on a streptavidin plate. […] A sheep anti-fluorescein antibody conjugated to HRP was used for detection of SEQ ID NO: 9 to enhance the signal over direct detection of the fluorescein moiety by ultraviolet-visible spectroscopy (UV/Vis). In this initial assay, the capture peptide (biotin-linaclotide), detection peptide (fluorescein-linaclotide), and anti-linaclotide antibodies were first incubated overnight in solution to allow complexes to form. These complexes were captured on a streptavidin plate, which was then washed. Bound complexes were detected with an HRP-conjugated anti-fluorescein antibody followed by addition of the HRP substrate and colorimetric detection.
The confirmatory assay was developed as a variation of the ELISA-based bridging assay (Example 6) with competition using fluorescein for detection. The peptide antibody incubation mixture was spiked with native linaclotide, and the concentrations of positive control antibody, capture peptide, and detection peptide were kept constant.
A binding curve was generated using Prism® v.

[8] = tested on: positive control antibody; test: Direct-binding ELISA of linaclotide-tracer peptide; parameters: species or system rabbit; settings: anti-fluorescein antibody conjugated to HRP for detection
From the text: Anti-fluorescein antibody conjugated to HRP was used to detect the linaclotide-tracer peptide, SEQ ID NO: 9. The signal increased with increasing antibody concentration.

## NNDC1 ELC2 VAVAC1 TGC2 L (NNDCELCVAVACTGCL; disulfide 4-12, 7-15; not fully specified (N-terminus); printed as NNDC1 ELC2 VAVAC1 TGC2 L) [Uroguanylin, endogenous hormone]
[1]
  recognition by antibodies produced by protocol 2 (inhibition versus negative control CNP): not recognized by antibodies produced by protocol 2
[2]; 60 ng/mL antibody of protocol 1
  signal for binding relative to the signal obtained for linaclotide: approximately 15%
[2]; 60 ng/mL antibody of protocol 1, varying concentrations of biotinylated peptide, FIG. 20
  binding of antibody produced by protocol 1: binds to uroguanylin in a concentration-dependent manner
[3]; 10 μg/mL Uroguanylin, antibody at the HPC (500 ng/mL)
  Percent Inhibition: 10.7% and 18.6% and 9.5% and −11.3% and 10.1% and −11.7% and −1.3% and −0.5% and 0.6% and 1.9%
[3]; 10 μg/mL Uroguanylin, antibody at the Screening LPC (44.0 ng/mL)
  Percent Inhibition: −6.6% and 18.4% and 15.7% and 4.8% and −3.8% and −1.5% and 3.2% and 5.1% and −0.5% and −4.1%
[3]; antibody at the HPC (500 ng/mL)
  Antibody and 10 μg/mL Uroguanylin (signal): 147 and 151 and 145 and 164 and 162 and 185 and 180 (2×) and 169 and 157
[3]; antibody at the Screening LPC (44.0 ng/mL)
  Antibody and 10 μg/mL Uroguanylin (signal): 59 (2×) and 39 and 44 and 52 (4×) and 51 and 53

## C[C@@H]1NC(=O)[C@@H]2CCCN2C(=O)[C@H](CC(N)=O)NC(=O)[C@@H]2CSSC[C@H](N)C(=O)N[C@H]3CSSC[C@H](NC1=O)C(=O)N[C@@H]([C@@H](C)O)C(=O)NCC(=O)N[C@H](C(=O)N[C@@H](Cc1ccc(O)cc1)C(=O)O)CSSC[C@H](NC(=O)[C@H](Cc1ccc(O)cc1)NC(=O)[C@H](CCC(=O)O)NC3=O)C(=O)N2 [Linaclotide, C1C2EYC3C1NPAC2TGC3Y] (H-CCEYCCNPACTGCY-OH; disulfide 1-6, 2-10, 5-13)
[4]
  effect on constipation, abdominal discomfort and bloating: reduced constipation, abdominal discomfort, and bloating
[1]
  inhibition of binding: approximately 60%
[5]
  signal in the direct-binding assay for cross-reactivity: Only linaclotide was able to generate a positive signal
[6]
  levels seen systemically: no detectable levels
[7]
  50% inhibitory concentration (IC50): 1.4 µg/mL
  80% inhibitory concentration (IC80): 6.3 µg/mL

## PGTC1 EIC2 AYAAC1 TGC2 (PGTCEICAYAACTGC; disulfide 4-12, 7-15; not fully specified (N-terminus); printed as PGTC1 EIC2 AYAAC1 TGC2) [Guanylin, endogenous hormone]
[1]
  recognition by antibodies produced by protocol 2 (inhibition versus negative control CNP): not recognized by antibodies produced by protocol 2
[3]; Table 7 (Guanylin), antibody at the HPC (500 ng/mL)
  Antibody and 10 μg/mL Uroguanylin (signal): 225 and 199 and 179 and 177 and 174 and 181 and 155 and 135 and 130 and 239
[3]; Table 7 (Guanylin), antibody at the Screening LPC (44.0 ng/mL)
  Antibody and 10 μg/mL Uroguanylin (signal): 71 and 57 (2×) and 55 (2×) and 54 and 53 (2×) and 63 and 51
[3]; Table 7 (Guanylin, 10 μg/mL), antibody at the HPC (500 ng/mL)
  Percent Inhibition: 0.0% and 3.2% and 7.6% and −3.4% and 2.2% and −7.8% and −3.9% and −1.9% and −7.1% and −4.5%
[3]; Table 7 (Guanylin, 10 μg/mL), antibody at the Screening LPC (44.0 ng/mL)
  Percent Inhibition: −7.1% and 8.2% and 3.4% and 12.5% and 11.0% and 7.4% and 6.4% and 3.6% and 0.1% and 7.0%

## Fluorescein-C1 C2 EYC3 C1 NPAC2 TGC3 Y [SEQ ID NO: 9]
[8]
  binding to the positive control antibody: confirmed
